Data: ChEMBL document CHEMBL6096719, “Kidney Targeting Smart Antibiotic Discovery: Multimechanism Pleuromutilins for Pyelonephritis Therapy” (J Med Chem, 2025)
The source made the active and inactive calls. The rule behind the calls is not given here.

Key:
[1] = Aqueous solubility of the compound incubated for 12 hrs by UV-Vis spectrophotometry; assay type: physicochemical; conditions: buffer
Acinetobacter baumannii = assay: Antibacterial activity against Acinetobacter baumannii ATCC 19606 assessed as inhibition of bacterial growth incubated for 24 hrs by broth microdilution method; assay type: functional
Staphylococcus aureus [2] = assay: Antibacterial activity against methicillin-resistant Staphylococcus aureus 575 assessed as inhibition of bacterial growth incubated for 24 hrs by broth microdilution method; assay type: functional
Staphylococcus aureus [3] = assay: Antibacterial activity against methicillin-resistant Staphylococcus aureus 222 assessed as inhibition of bacterial growth incubated for 24 hrs by broth microdilution method; assay type: functional
Mycoplasmopsis synoviae = assay: Anti-mycoplasma activity against Mycoplasma synoviae WVU1853 NCTC10124 assessed as inhibition of bacterial growth incubated for 3 to 5 days by broth microdilution method; assay type: functional; conditions: time 3-5 day
Chlamydia pneumoniae = assay: Anti-mycoplasma activity against Chlamydophila pneumoniae AR39 ATCC53592 assessed as inhibition of bacterial growth incubated for 3 to 5 days by broth microdilution method; assay type: functional; conditions: time 3-5 day
Mycoplasma genitalium = assay: Anti-mycoplasma activity against Mycoplasma genitalium G37 ATCC33530 assessed as inhibition of bacterial growth incubated for 7 to 14 days by broth microdilution method; assay type: functional; conditions: Mycoplasmoides genitalium, time 7-14 day
Cell membrane [4] = assay: Disruption of cell membrane in methicillin-resistant Staphylococcus aureus ATCC33591 assessed as disrupted, furrowed, crumpled cell envelope at 0.125 to 0.5 ug/ml incubated for 2 hrs by propidium iodide staining based confocal laser scanning microscopy; assay type: subcellular; conditions: dose 0.125-0.5 µg/ml
Cell membrane [5] = assay: Disruption of cell membrane in methicillin-resistant Staphylococcus aureus ATCC33591 assessed as induction of cell death by measuring increase in propidium iodide fluorescence intensity at 0.5 ug/ml incubated for 2 hrs by fluorescence field microscopy; assay type: subcellular; conditions: dose 0.5 µg/ml
Cell membrane [6] = assay: Disruption of cell membrane in Escherichia coli ATCC25922 assessed as induction of cell death by measuring increase in propidium iodide fluorescence intensity at 0.5 ug/ml incubated for 2 hrs by fluorescence field microscopy; assay type: subcellular; conditions: dose 0.5 µg/ml
Cell membrane [7] = assay: Disruption of cell membrane in Escherichia coli ATCC25922 assessed as increase in extracellular ATP content at 0.125 to 0.25 ug/ml incubated for 30 mins by luminescence based analysis; conditions: dose 0.125-0.25 µg/ml
Cell membrane [8] = assay: Disruption of cell membrane in Escherichia coli ATCC25922 assessed as decrease in intracellular pH at 0.125 ug/ml incubated for 30 mins by cFDA-SE probe based fluorescence analysis; conditions: dose 0.125 µg/ml
Cell membrane [9] = assay: Disruption of cell membrane in methicillin-resistant Staphylococcus aureus ATCC33591 assessed as leakage of bacterial cell contents by measuring increase in conductivity of bacterial solution at MIC measured for 6 hrs by conductivity meter analysis
Cell membrane [10] = assay: Disruption of cell membrane in Escherichia coli ATCC25922 assessed as leakage of bacterial cell contents by measuring increase in conductivity of bacterial solution at MIC measured for 6 hrs by conductivity meter analysis
Staphylococcus aureus [11] = assay: (§1) Antibacterial activity against methicillin-resistant Staphylococcus aureus ATCC33591 infected in systemic intraperitoneal infection Kunming mouse model assessed as decrease in inflammation, neutrophil infiltration, alveolar structure destruction, leukocyte infiltration, interstitial thickening in lungs at 5 mg/kg, ip treated at 1 hr post-infection and measured after 7 days by Hematoxylin-Eosin staining based analysis; assay type: functional, organism-based; conditions: time 7.0 day
Staphylococcus aureus [12] = assay: as §1, with “infiltration and disordered spleen” for “infiltration, alveolar”, “structure” for “structure destruction, leukocyte infiltration, interstitial thickening in lungs”; assay type: functional, organism-based; conditions: time 7.0 day
Staphylococcus aureus [13] = assay: Antibacterial activity against methicillin-resistant Staphylococcus aureus ATCC33591 infected in systemic intraperitoneal infection Kunming mouse model assessed as decrease in bacterial colonies in lungs administered intraperitoneally at 1 hr post-infection and measured after 7 days; assay type: functional, organism-based; conditions: dose 5-20 mg/kg, route ip, time 7.0 day
Staphylococcus aureus [14] = assay: Antibacterial activity against methicillin-resistant Staphylococcus aureus ATCC33591 infected in systemic intraperitoneal infection Kunming mouse model assessed as increase in animal's survival rate at 20 mg/kg, ip treated at 1 hr post-infection and measured for 7 days; assay type: functional, organism-based; conditions: time 7.0 day
[15] = target: Solute carrier family 22 member 1 (Homo sapiens, UniProt O15245); assay: Substrate activity at human OCT1 transfected in HEK293 cells assessed as increase in intracellular drug content at 100 uM measured after 5 mins; assay type: ADME, cell-based; conditions: hek293, 5 min
[16] = target: T1, Solute carrier family 22 member 2 (Homo sapiens, UniProt O15244); assay: Inhibition of human OCT2 transfected in HEK293 cells assessed as decrease in intracellular ASP accumulation […] incubated for 10 mins followed by incubation with ASP for 5 mins by fluorescence based analysis; assay type: cell-based; conditions: hek293, 0.25 h, time 15 min
T1 sequence (O15244 whole entry): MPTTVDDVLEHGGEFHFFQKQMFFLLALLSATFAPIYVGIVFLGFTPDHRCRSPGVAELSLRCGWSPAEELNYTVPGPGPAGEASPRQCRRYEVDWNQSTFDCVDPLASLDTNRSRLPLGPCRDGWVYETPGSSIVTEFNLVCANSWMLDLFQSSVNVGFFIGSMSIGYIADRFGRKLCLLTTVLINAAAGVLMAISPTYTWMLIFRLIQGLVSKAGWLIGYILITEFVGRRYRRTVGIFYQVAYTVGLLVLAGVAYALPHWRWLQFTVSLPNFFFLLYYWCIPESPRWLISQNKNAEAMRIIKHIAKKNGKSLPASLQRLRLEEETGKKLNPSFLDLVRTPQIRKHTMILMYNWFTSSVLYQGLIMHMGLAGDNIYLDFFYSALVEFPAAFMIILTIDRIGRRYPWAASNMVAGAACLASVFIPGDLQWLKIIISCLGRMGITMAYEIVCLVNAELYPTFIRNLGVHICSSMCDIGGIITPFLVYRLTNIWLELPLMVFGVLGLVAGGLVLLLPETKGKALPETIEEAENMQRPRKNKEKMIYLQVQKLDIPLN

[17] = Tmax in Sprague-Dawley rat at 5 mg/kg, iv; assay type: ADME, organism-based; conditions: in vivo
[18] = Half-life in Sprague-Dawley rat at 5 mg/kg, iv; assay type: ADME, organism-based; conditions: in vivo
[19] = Observed AUC (0 to infinity) in Sprague-Dawley rat at 5 mg/kg, iv; assay type: ADME, organism-based; conditions: in vivo
[20] = Half-life in Sprague-Dawley rat at 10 mg/kg, po; assay type: ADME, organism-based; conditions: in vivo
[21] = Observed MRT (0 to infinity) in Sprague-Dawley rat at 10 mg/kg, po; assay type: ADME, organism-based; conditions: in vivo
[22] = Oral bioavailability in Sprague-Dawley rat at 10 mg/kg; assay type: ADME, organism-based; conditions: in vivo
Escherichia coli = assay: Antibacterial activity against Escherichia coli ATCC25922 infected in pyelonephritis C57BL/6 mouse model assessed as decrease in bacterial load in kidney at 3 to 10 mg/kg, iv qd for 3 days administered at 2 days post-infection; assay type: functional, organism-based; conditions: dose 3-10 mg/kg, time 3.0 day
Staphylococcus aureus [23] = assay: Antibacterial activity against methicillin-resistant Staphylococcus aureus ATCC33591 infected in systemic intraperitoneal infection Kunming mouse model assessed as increase in animal's survival rate at 5 mg/kg, ip treated at 1 hr post-infection and measured on day 7; assay type: functional; conditions: ATCC33591, 168 h, time 7 day

Solute carrier family 22 member 1, sequence (O15245 whole entry): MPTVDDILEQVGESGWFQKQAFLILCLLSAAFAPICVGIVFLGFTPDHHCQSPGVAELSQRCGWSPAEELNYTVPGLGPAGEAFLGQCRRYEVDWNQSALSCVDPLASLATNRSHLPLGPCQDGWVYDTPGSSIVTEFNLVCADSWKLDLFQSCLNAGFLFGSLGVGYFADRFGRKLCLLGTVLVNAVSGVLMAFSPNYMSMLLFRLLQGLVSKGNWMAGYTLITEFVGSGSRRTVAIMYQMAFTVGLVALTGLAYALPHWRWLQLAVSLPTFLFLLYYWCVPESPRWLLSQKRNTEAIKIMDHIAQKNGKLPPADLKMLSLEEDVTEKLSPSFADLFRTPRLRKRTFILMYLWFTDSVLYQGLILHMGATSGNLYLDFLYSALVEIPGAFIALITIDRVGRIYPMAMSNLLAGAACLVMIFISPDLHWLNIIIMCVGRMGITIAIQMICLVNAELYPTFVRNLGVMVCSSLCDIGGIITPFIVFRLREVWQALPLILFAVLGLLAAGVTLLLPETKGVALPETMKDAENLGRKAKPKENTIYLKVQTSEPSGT

C=C[C@]1(C)C[C@@H](OC(=O)CSc2nc3cc[n+](Cc4ccc(C)cc4)cc3[nH]2)[C@]2(C)[C@H](C)CC[C@]3(CCC(=O)[C@H]32)[C@@H](C)[C@@H]1O.[Br-]
solubility at 12 h [1]: 573 µg/mL
MIC (Acinetobacter baumannii): < 1 µg/mL
MIC (Staphylococcus aureus [2]): 1 µg/mL
MIC (Staphylococcus aureus [3]): 4 µg/mL
MIC (Mycoplasmopsis synoviae): < 0.04 µg/mL
MIC (Chlamydia pneumoniae): < 0.04 µg/mL
MIC (Mycoplasma genitalium): < 0.04 µg/mL
Activity (Cell membrane [4]): Active
Activity (Cell membrane [5]): Active
Activity (Cell membrane [6]): Active
Activity (Cell membrane [7]): Active
Activity (Cell membrane [8]): Active
Activity (Cell membrane [9]): Active
Activity (Cell membrane [10]): Active
Activity (Staphylococcus aureus [11]): Active; Nearly Restoration Of Normal Histology Observed
Activity (Staphylococcus aureus [12]): Active; Nearly Restoration Of Normal Histology Observed
Activity (Staphylococcus aureus [13]): Active; Superior Efficacy Compared To Valnemulin Observed
Activity (Staphylococcus aureus [14]): Active; Slight Decrease In Activity Compared To Lower Dose Of Drug Concentration Observed; Diminished Therapeutic Effects To Drug At Higher Concentrations Observed
Activity [15]: Active
inhibition (INH) [16]: Not_active
Tmax [17]: 1.8 min
half-life [18]: 1.17 h
AUC(0-inf) [19]: 16500 ng·h/mL
half-life [20]: 1.57 h
MRT inf [21]: 2.46 h
bioavailability [22]: 47.9%
Activity (Escherichia coli): Active
survival at 5 mg/kg (Staphylococcus aureus [23]): 80%
